Measurements: US5153201A, “Condensed thiazole compounds and use as pharmaceuticals” (Takeda Chemical Industries, Ltd., priority 1990, dated 1992)

These compounds were tested on excitatory behavior induced by spinal intrathecal injection of FeCl2 in mice (assay: Effects of drugs on the excitatory behavior induced by spinal intrathecal injection of FeCl2 in mice). Conditions: inhibition of mean behavioral score versus saline; 100 mg/kg orally 30 min. prior to FeCl2 injection, mice.
Type: in vivo
Experimental: Effects of drugs on the excitatory behavior induced by spinal intrathecal injection of FeCl2 in mice Male Slc:ICP mice (5 weeks) were used. Each group consisted of 10 mice. 5 μl of 50 mM FeCl2 in saline was injected into spinal subarchnoid space between the 1st sacral and the 6th lumbar segment, the behavioral responses were observed from 15 min. to 1 hr. after the intrathecal injection of FeCl2 and scored as follows. |Score Behavioral responses |0: normal (no abnormal behavior) |1: vigorously biting lower abdomen or lower | extremities |2: a) extremely biting lower body with rolling | b) hyperreactivity and […] to external stimuli | c) tremor | at least one of above three behavioral changes were | observed |3: clonic convulsion |4: tonic convulsion or paralysis of lower extremities. |5: death The test compounds (100 mg/kg) were orally administered 30 min. prior to FeCl2 injection.

Going from `COc1cccc(C=Cc2nc3c(s2)NCCC3)c1OC` [Example 1, 2-(2,3-Dimethoxystyryl)-4,5,6,7-tetrahydrothiazolo[5,4-b]pyridine] to `Cl.Cl.Cn1cnc(C=Cc2nc3c(s2)NCCC3)c1` [Example 5, 2-{2-(1-Methylimidazole-4-yl)ethenyl}-4,5,6,7-tetrahydrothiazolo[5,4-b]pyridine dihydrochloride], the “Percent inhibition (%)” value rises from 82.6% to 91.3%.

First: Cc1ccc(-c2nc3c(s2)NCCC3)cc1N [Example 2, 2-(3-Amino-4-methylphenyl)-4,5,6,7-tetrahydrothiazolo[5,4-b]pyridine]
Second: Cc1ccc(-c2nc3c(s2)NCCC3)cc1N.Cl.Cl [Example 3, 2-(3-Amino-4-methylphenyl)-4,5,6,7-tetrahydrothiazolo[5,4-b]pyridine dihydrochloride]
The “Percent inhibition (%)” value of the first is higher: 85.1% for the first, 80.9% for the second.

With `CCn1cc(C=Cc2nc3c(s2)NCCC3)nc1-c1ccccc1` [Example 6, 2-{2-(1-Ethyl-2-phenylimidazole-4-yl)ethenyl}-4,5,6,7-tetrahydrothiazolo[5,4-b]pyridine] the “Percent inhibition (%)” value was 97.9%.

Same assay, conditions: male Slc:ICP mice (5 weeks); 100 mg/kg orally 30 min. prior to FeCl2 (5 μl of 50 mM, intrathecal); observed 15 min. to 1 hr.; score 0 normal to 5 death

Compared with `COc1cccc(C=Cc2nc3c(s2)NCCC3)c1OC` [Example 1, 2-(2,3-Dimethoxystyryl)-4,5,6,7-tetrahydrothiazolo[5,4-b]pyridine], `Cl.Cl.Cn1cnc(C=Cc2nc3c(s2)NCCC3)c1` [Example 5, 2-{2-(1-Methylimidazole-4-yl)ethenyl}-4,5,6,7-tetrahydrothiazolo[5,4-b]pyridine dihydrochloride] is lower in “Average score, administration of compound (100 mg/kg)” value (“Average score, administration” below): 0.8 for the first, 0.4 for the second.

Compared with `Cc1ccc(-c2nc3c(s2)NCCC3)cc1N` [Example 2, 2-(3-Amino-4-methylphenyl)-4,5,6,7-tetrahydrothiazolo[5,4-b]pyridine], `Cc1ccc(-c2nc3c(s2)NCCC3)cc1N.Cl.Cl` [Example 3, 2-(3-Amino-4-methylphenyl)-4,5,6,7-tetrahydrothiazolo[5,4-b]pyridine dihydrochloride] is higher in “Average score, administration” value: 0.7 for the first, 0.9 for the second.

With `CCn1cc(C=Cc2nc3c(s2)NCCC3)nc1-c1ccccc1` [Example 6, 2-{2-(1-Ethyl-2-phenylimidazole-4-yl)ethenyl}-4,5,6,7-tetrahydrothiazolo[5,4-b]pyridine] the “Average score, administration” value was 0.1.
